The results in this text go back to patent US8802678B2, “Carbonylated (aza) cyclohexanes as dopamine D3 receptor ligands” (Bioprojet, priority 2006, dated 2014).

As a reminder, the melting point is the temperature of the solid-liquid transition.

Consider `CS(=O)(=O)CC(=O)N[C@H]1CC[C@H](CCN2CCN(c3cccc(C(F)(F)F)c3)CC2)CC1` [Example 337, 2-Methanesulfonyl-N-(4-{2-[4-(3-trifluoromethylphenyl)piperazin-1-yl]ethyl}cyclohexyl)acetamide], for which the melting point amounted to 158 °C.

Regarding `Cc1ccc(N2CCN(CC[C@H]3CC[C@H](NC(=O)CC#N)CC3)CC2)cc1F` [Example 339, 2-Cyano-N-(4-{2-[4-(3-fluoro-4-methylphenyl)piperazin-1-yl]ethyl}cyclohexyl)acetamide], the melting point came to 208 °C.

As for `Cc1ccc(N2CCN(CC[C@H]3CC[C@H](NC(=O)CC#N)CC3)CC2)cc1C` [Example 340, 2-Cyano-N-(4-{2-[4-(3,4-dimethylphenyl)piperazin-1-yl]ethyl}cyclohexyl)acetamide], the melting point was determined as 210 °C.

On to `N#CCC(=O)N[C@H]1CC[C@H](CCN2CCN(c3cc(F)c(F)c(F)c3)CC2)CC1` [Example 341, 2-Cyano-N-(4-{2-[4-(3,4,5-trifluorophenyl)piperazin-1-yl]ethyl}cyclohexyl)acetamide], for which the melting point is 209 °C.

As for `N#CCC(=O)N[C@H]1CC[C@H](CCN2CCN(c3cccc(SC(F)(F)F)c3)CC2)CC1` [Example 343, 2-Cyano-N-(4-{2-[4-(3-trifluoromethylsulfanylphenyl)piperazin-1-yl]ethyl}cyclohexyl)-acetamide], the melting point was 165 °C.

In turn, `CS(=O)(=O)c1cccc(N2CCN(CC[C@H]3CC[C@H](NC(=O)CC#N)CC3)CC2)c1` [Example 351, 2-Cyano-N-(4-{2-[4-(3-methanesulfonylphenyl)piperazin-1-yl]ethyl}cyclohexyl)acetamide] displayed a melting point of 195 °C.

In the case of `N#CCC(=O)N[C@H]1CC[C@H](CCN2CCN(c3cccc(C(F)F)c3)CC2)CC1` [Example 354, 2-Cyano-N-(4-{2-[4-(3-difluoromethylphenyl)piperazin-1-yl]ethyl}cyclohexyl)acetamide], the melting point came to 185 °C.

As to `Cc1c(F)cccc1N1CCN(CC[C@H]2CC[C@H](NC(=O)CCCC#N)CC2)CC1` [Example 356, 4-Cyano-N-(4-{2-[4-(3-fluoro-2-methylphenyl)piperazin-1-yl]ethyl}cyclohexyl)butanamide], the melting point amounted to 159 °C.

The compound `N#CCCCC(=O)N[C@H]1CC[C@H](CCN2CCN(c3ccc(F)c(F)c3)CC2)CC1` [Example 357, 4-Cyano-N-(4-{2-[4-(3,4-difluorophenyl)piperazin-1-yl]ethyl}cyclohexyl)butanamide] displayed a melting point of 141 °C.

`Cc1cc(N2CCN(CC[C@H]3CC[C@H](NC(=O)CCCC#N)CC3)CC2)ccc1F` [Example 358] showed a melting point of 160 °C.

With `N#CCC(=O)N[C@H]1CC[C@H](CCN2CCN(c3ccc(Cl)cc3F)CC2)CC1` [Example 359, N-(4-{2-[4-(4-Chloro-2-fluorophenyl)piperazin-1-yl]ethyl}cyclohexyl)-2-cyanoacetamide], the melting point amounted to 218 °C.

`N#CCC(=O)N[C@H]1CC[C@H](CCN2CCN(c3ccc(Cl)c(C(F)(F)F)c3)CC2)CC1` [Example 360, N-(4-{2-[4-(4-Chloro-3-trifluoromethylphenyl)piperazin-1-yl]ethyl}cyclohexyl)-2-cyanoacetamide] showed a melting point of 187 °C.

`N#CCCCC(=O)N[C@H]1CC[C@H](CCN2CCN(c3cccc(SC(F)(F)F)c3)CC2)CC1` [Example 363, 4-Cyano-N-(4-{2-[4-(3-trifluoromethylsulfanylphenyl)piperazin-1-yl]ethyl}cyclohexyl)butanamide]: the melting point worked out at 150 °C.

As to `N#CCCCC(=O)N[C@H]1CC[C@H](CCN2CCN(c3cccc(C(F)F)c3)CC2)CC1` [Example 364, 4-Cyano-N-(4-{2-[4-(3-difluoromethylphenyl)piperazin-1-yl]ethyl}cyclohexyl)butanamide], the melting point came to 155 °C.

`N#CCCCC(=O)N[C@H]1CC[C@H](CCN2CCN(c3ccc4c(c3)OCO4)CC2)CC1` [Example 365, N-{4-[2-(4-Benzo[1,3]dioxol-5-ylpiperazin-1-yl)ethyl]cyclohexyl}-4-cyanobutanamide] returned a melting point of 189 °C.

The compound `N#CCCCC(=O)N[C@H]1CC[C@@H](CCN2CCN(c3cccc(C(F)(F)F)c3F)CC2)CC1` [Example 366, 4-Cyano-N-(4-{2-[4-(2-fluoro-3-trifluoromethylphenyl)piperazin-1-yl]ethyl}cyclohexyl)butanamide] registered a melting point of 95 °C.

With `N#CCCCC(=O)N[C@H]1CC[C@H](CCN2CCN(c3ccc(Cl)c(Cl)c3)CC2)CC1` [Example 368, 4-Cyano-N-(4-{2-[4-(3,4-dichlorophenyl)piperazin-1-yl]ethyl}cyclohexyl)butanamide], the melting point is 151 °C.

Regarding `Cc1ccc(N2CCN(CC[C@H]3CC[C@H](NC(=O)CC#N)CC3)CC2)cc1Cl` [Example 369, N-(4-{2-[4-(3-Chloro-4-methylphenyl)piperazin-1-yl]ethyl}cyclohexyl)-2-cyanoacetamide], the melting point was 220 °C.

For `N#CCC(=O)N[C@H]1CC[C@H](CCN2CCN(c3ccc(C#N)cc3)CC2)CC1` [Example 370, 2-Cyano-N-(4-{2-[4-(4-cyanophenyl)piperazin-1-yl]ethyl}cyclohexyl)acetamide], the melting point is 228 °C.

As for `N#CCCCC(=O)N[C@H]1CC[C@H](CCN2CCN(c3cc(Cl)ccc3Cl)CC2)CC1` [Example 371, 4-Cyano-N-(4-{2-[4-(2,5-dichlorophenyl)piperazin-1-yl]ethyl}cyclohexyl)butanamide], the melting point turned out to be 179 °C.

`COc1ccccc1N1CCN(CC[C@H]2CC[C@H](NC(=O)C3CC=CC3)CC2)CC1` [Example 372, Cyclopent-3-enecarboxylic acid (4-{2-[4-(2-methoxyphenyl)piperazin-1-yl]ethyl}cyclohexyl) amide] yielded a melting point of 202 °C.

`O=C(CC1C=CCC1)N[C@H]1CC[C@H](CCN2CCN(c3cccc(C(F)(F)F)c3)CC2)CC1` (stereo partly shown) [Example 373, 2-Cyclopent-2-enyl-N-(4-{2-[4-(3-trifluoromethylphenyl)piperazin-1-yl]ethyl}cyclohexyl)acetamide]: the melting point is 154 °C.

In turn, `N#CCCCC(=O)N[C@H]1CC[C@H](CCN2CCN(c3cc(F)c(F)c(F)c3)CC2)CC1` [Example 374, 4-Cyano-N-(4-{2-[4-(3,4,5-trifluorophenyl)piperazin-1-yl]ethyl}cyclohexyl)butanamide] displayed a melting point of 156 °C.

Take `CC(=O)c1cccc(N2CCN(CC[C@H]3CC[C@H](NC(=O)CCCC#N)CC3)CC2)c1` [Example 375]: the melting point worked out at 181 °C.

The compound `N#CCC(=O)N[C@H]1CC[C@H](CCN2CCN(c3ccccc3C#N)CC2)CC1` [Example 376, 2-Cyano-N-(4-{2-[4-(2-cyanophenyl)piperazin-1-yl]ethyl}cyclohexyl)acetamide] yielded a melting point of 190 °C.

For the compound `N#CCCCC(=O)N[C@H]1CC[C@H](CCN2CCN(c3ccccc3C#N)CC2)CC1` [Example 377, 4-Cyano-N-(4-{2-[4-(2-cyanophenyl)piperazin-1-yl]ethyl}cyclohexyl)butanamide], the melting point amounted to 160 °C.

Compound `CCc1cccc(N2CCN(CC[C@H]3CC[C@H](NC(=O)C4CC=CC4)CC3)CC2)c1` [Example 378, Cyclopent-3-enecarboxylic acid (4-{2-[4-(3-ethylphenyl)piperazin-1-yl]ethyl}cyclohexyl) amide] showed a melting point of 185 °C.

`Cc1cccc(N2CCN(CC[C@H]3CC[C@H](NC(=O)C4CC=CC4)CC3)CC2)c1` [Example 379, Cyclopent-3-enecarboxylic acid {4-[2-(4-m-tolylpiperazin-1-yl)ethyl]cyclohexyl}] gave a melting point of 200 °C.

`Cc1cccc(N2CCN(CC[C@H]3CC[C@H](NC(=O)C4=CCCC4)CC3)CC2)c1` [Example 380, Cyclopent-1-enecarboxylic acid {4-[2-(4-m-tolylpiperazin-1-yl)ethyl]cyclohexyl} amide] displayed a melting point of 188 °C.

`Cc1ccc(N2CCN(CC[C@H]3CC[C@H](NC(=O)CCCC#N)CC3)CC2)cc1Cl` [Example 381, N-(4-{2-[4-(3-Chloro-4-methylphenyl)piperazin-1-yl]ethyl}cyclohexyl)-4-cyanobutanamide] came in with a melting point of 168 °C.

In turn, `COc1ccccc1N1CCN(CC[C@H]2CC[C@H](NC(=O)CCCC#N)CC2)CC1` [Example 382, 4-Cyano-N-(4-{2-[4-(2-methoxyphenyl)piperazin-1-yl]ethyl}cyclohexyl)butanamide] returned a melting point of 147 °C.

Compound `Cc1ccc(C(F)(F)F)cc1N1CCN(CC[C@H]2CC[C@H](NC(=O)CC#N)CC2)CC1` [Example 383, 2-Cyano-N-(4-{2-[4-(2-methyl-5-trifluoromethylphenyl)piperazin-1-yl]ethyl}cyclohexyl)acetamide] showed a melting point of 192 °C.

For the compound `O=C(N[C@H]1CC[C@H](CCN2CCN(c3ccc(F)cc3F)CC2)CC1)C1=CCCC1` [Example 384, Cyclopent-1-enecarboxylic acid (4-{2-[4-(2,4-difluorphenyl)-piperazin-1-yl]ethyl}cyclohexyl) amide], the melting point was determined as 205 °C.

Compound `O=C(COc1ccc(F)cc1)N[C@H]1CC[C@H](CCN2CCN(c3ccc(F)cc3F)CC2)CC1` [Example 385, N-(4-{2-[4-(2,4-Difluorophenyl)piperazin-1-yl]ethyl}cyclohexyl)-2-(4-fluorophenoxy)acetamide] had a melting point of 162 °C.

Consider `O=C(CC(F)(F)F)N[C@H]1CC[C@H](CCN2CCN(c3ccc(F)cc3F)CC2)CC1` [Example 386, N-(4-{2-[4-(2,4-Difluorophenyl)piperazin-1-yl]ethyl}cyclohexyl)-3,3,3-trifluoropropanamide], for which the melting point came out at 184 °C.

Regarding `O=C(CC1CC=CC1)N[C@H]1CC[C@H](CCN2CCN(c3ccccc3F)CC2)CC1` [Example 387], the melting point is 188 °C.

As to `Cc1ccc(C(F)(F)F)cc1N1CCN(CC[C@H]2CC[C@H](NC(=O)CCCC#N)CC2)CC1` [Example 388, 4-Cyano-N-(4-{2-[4-(2-methyl-5-trifluoromethylphenyl)piperazin-1-yl]ethyl}cyclohexyl)butyramide], the melting point was found to be 153 °C.
